Reference: patent publication US6713494B1, “Amorphous benzothiophenes, methods of preparation and methods of use” (Eli Lilly and Company, priority 1996, dated 2004)
Structures can show the parent of a compound that is named as a salt. Where two headings read alike, the source gives them in different places.

Legend:
[1] = Bioavailability study: plasma levels in dogs; type: in vivo; settings: 4 mg/kg, PEG vehicle, plasma levels over a 10 hour period, amorphous vs crystalline form
Protocol: The extent and rate of absorption of the crystalline and amorphous forms of raloxifene HCl was determined. The two forms of the compound were formulated in a PEG vehicle as follows: […]
Six dogs were dosed as follows: three dogs received the amorphous form, while three dogs received the crystalline form, both at a dose of 4 mg/kg. Plasma levels of the two compound forms were then determined over a 10 hour period.

[2] = for Solubility: in water, room temperature, hydrochloride
[3] = long term studies; birefringence under polarized light microscope
Protocol: The presence of the amorphous form of a compound of formula I was determined by observing the material under a polarized light microscope, and determining if the material was birefringent. If no birefringence was observed, the material was considered to be amorphous.
The amorphous material was also made as a complex with povidone, with ratios of raloxifene HCl to PVP as follows: 9:1, 3:1, and 1:1 (w/w). Complexes with hydroxypropyl-β-cyclodextrin (HPBCD) were also prepared, with a ratio of raloxifene HCl to HPBCD of from 1:1 to 1:4 (w/w).

[4] = physchem; settings: water, 37 °C, thermodynamic from solid, in water, in sonicator

SMILES	Bioavailability (plasma levels) [1]	Solubility of the amorphous form relative to the crystalline form ([2]; amorphous vs crystalline form)	Solubility [2] [mg/mL]	Stability of the amorphous form [3]	Solubility [4] [mg/mL]
O=C(c1ccc(OCCN2CCCCC2)cc1)c1c(-c2ccc(O)cc2)sc2cc(O)ccc12 [amorphous, raloxifene hydrochloride]	greater bioavailability	approximately 250 times	42.2	very stable	120
O=C(c1ccc(OCCN2CCCCC2)cc1)c1c(-c2ccc(O)cc2)sc2cc(O)ccc12 [crystalline, raloxifene hydrochloride, reference compound]			0.08		
